Values belong to the molecule of their own block, whether it stands above or below them. Numbered stars: 1 amine (or outer) side, 2 acyl side, 3 side chain; on linkers, the order of the positions; unused ones are H or OH. Square brackets hold non-standard residues; d marks the D form. Peptide text beside a SMILES is read from it. N(2-(2-PhOPh)Et)Gly = O=C(O)CNCCc1ccccc1Oc1ccccc1; Gly(N-3,5-(OMe)2-Ph) = COc1cc(NCC(=O)O)cc(OC)c1; X1 = COc1ccc([C@H](C)N(CC(=O)[*:2])[*:1])cc1; N((CH2)3OiPr)Gly = CC(C)OCCCNCC(=O)O
How the values were obtained:
[1] = tested on: TOP-Flash Wnt luciferase reporter; experiment: TOP-Flash Wnt luciferase reporter assay in LNCaP-abl cells; type: cell-based; settings: for Effect of control Wnt inhibitors on the Wnt luciferase reporter: dose response, commercially available inhibitors (Supplementary Fig. 5)
From the text: (§1) Using a TOP-Flash Wnt luciferase reporter, we tested the 12 oligomers identified from in silico modeling for inhibitory activity (Fig. 2b). […] We also employed a 3 × -Androgen Response Element (ARE) luciferase reporter to measure the effect on AR activity. […] As additional controls, we obtained previously developed, commercially available Wnt inhibitors and tested them in the Wnt luciferase assay (Supplementary Fig. 5).
(§2) We next characterized the dose response curves for compound 13 in the Wnt and AR luciferase reporters. The linear version of 13 (linear 13: NH2-|N-mpp, N-dmp, N-ipp, N-Smpe, N-Smpe, D-Ala|-OH) was used as a control compound. […] To test direct binding, we pre-formed dynamic light scattering (DLS) with β-catenin in the presence of vehicle, compound 13, and α-cyclodextrin. […] HEK293 cells were transiently transfected with a plasmid expressing full length, myc-tagged TCF4. After 48 h treatment with either vehicle (DMSO) or 10 µM 13, cells were lysed and myc-TCF4 protein was immunoprecipitated.
LNCaP-abl and LNCaP-95 cells were cultured in indicator free RPMI 1640 media (Life) supplemented with 10% charcoal stripped FBS, 1% pennicillin/streptomycin, and 1% L-Glutamine. HEK-293 Cells were cultured in DMEM media (Life) supplemented with 10%FBS and 1% pennicillin/streptomycin. A549 and U2OS cells were cultured in RPMI 1640 media (Life) and McCoy’s 5 A modified media (Life), respectively, both supplemented with 10%FBS and 1% pennicillin/streptomycin. LNCaP-abl, and LNCaP-95 cell lines were generous gifts from Z. Culig (Innsbruck Medical University, Austria) and J. Isaacs (Johns Hopkins University, Baltimore, MD), respectively. Cell lines were authenticated by STR profiling (Genetica Cell Line Testing; Burlington, NC). A549 and U2OS were purchased from ATCC (product numbers CCL-185 and HTB-96). Cell lines were routinely screened for mycoplasma. Luciferase assays were conducted using stably transfected TOP-flash and 3xARE LNCaP-abl cell lines. For the Wnt pathway, TOP-Flash LNCaP-abl cells were treated with 1 nM siAPC (a 1:1:1 mix of Ambion Silencer Silect siAPC RNA, ID#s s1433, s1434, s1435) for 24 h and seeded into 384-well plates at 5000 cells/well, followed by 24 h of treatment with compound. For the AR-pathway, 3xARE LNCaP-abl cells were seeded into 384-well plates at 5000 cells per well, treated for 48 h with compound, with the addition of R1881 for the final 8 h. Both were measured using the ONE-Glo detection kit (Promega) and data is standardized to CellTiter-Fluor (Promega) viability readings to account for potential variations in well to well cell number. Control Wnt inhibitors were purchased from Sigma with the exception of PRI-724 which was purchased from Selleckchem. Co-immunoprecipitation was carried out using HEK293 cells transfected with either myc-TCF (addgene #32738) or myc-TCF dominant negative (addgene #32739) followed by 48 h of treatment with compound. Cells were lysed using Triton lysis buffer and 1 mg total protein was incubated overnight at 4 C with 40 µl anti-cMyc magnetic beads (Thermo). Total protein concentration in cell lysates were determined using Pierce Rapid Gold BCA Protein Assay Kit (Thermo). The beads were washed 3× with lysis buffer then boiled in 2X sample loading dye. SDS-PAGE and western blotting were performed using anti-Myc (CST 2276) and anti-β-catenin (CST 8480). Both antibodies were diluted in blocking buffer 1:1000 and incubated overnight at 4 C with the membrane. […]

[2] = set-up: method as in PMID 24019458; settings: mouse xenograft experiments, direct tumor injection required; cited from earlier work
[3] = tested on: AR luciferase reporter (3xARE); experiment: 3x-Androgen Response Element (ARE) luciferase reporter assay in LNCaP-abl cells; type: cell-based; settings: 3xARE LNCaP-abl cells, 48 h compound, androgen-activated; read-out: IC50 for inhibition of the AR luciferase reporter
From the text: as §1, §2
LNCaP-abl and LNCaP-95 cells were cultured in indicator free RPMI 1640 media (Life) supplemented with 10% charcoal stripped FBS, 1% pennicillin/streptomycin, and 1% L-Glutamine. HEK-293 Cells were cultured in DMEM media (Life) supplemented with 10%FBS and 1% pennicillin/streptomycin. A549 and U2OS cells were cultured in RPMI 1640 media (Life) and McCoy’s 5 A modified media (Life), respectively, both supplemented with 10%FBS and 1% pennicillin/streptomycin. LNCaP-abl, and LNCaP-95 cell lines were generous gifts from Z. Culig (Innsbruck Medical University, Austria) and J. Isaacs (Johns Hopkins University, Baltimore, MD), respectively. Cell lines were authenticated by STR profiling (Genetica Cell Line Testing; Burlington, NC). […] Both were measured using the ONE-Glo detection kit (Promega) and data is standardized to CellTiter-Fluor (Promega) viability readings to account for potential variations in well to well cell number. […] Total protein concentration in cell lysates were determined using Pierce Rapid Gold BCA Protein Assay Kit (Thermo). […]

[4] = tested on: Wnt signaling in zebrafish embryos; settings: 50 µl of 30 µM compound added at ~5.5 hpf, BIO added about 30 min later; eight fish per group
Procedure: To evaluate the efficacy of 13 in vivo, we utilized a Danio rerio (zebrafish) model. […] To test this, BIO was added to zebrafish embryos at 6 hpf with and without 13 as described in Fig. 6a.
The zebrafish phenotypic assay was conducted using wild-type zebrafish embryos seeded into a 96-well round bottom plate at 4 hpf in 50 µl of Fish Water (60 mg/l sea salt, Instant Ocean, Blacksburg, VA, USA) supplemented with 1 mg per L Methylene Blue (Sigma-Aldrich). The embryos were not dechorionated. At 50% epiboly, roughly 5.5 hpf, 50 µl of 30 µM 13 or Linear 13 was added. About 30 min later at shield stage, 50 µl of 6 nM (3×) BIO was added. The embryos were then visualized for the presence of eyes and imaged at 30 hpf. Zebrafish embryos were randomly assigned to non-blinded treatment groups, none were excluded. Sample size was determined with a power calculation to achieve statistical significance (alpha = 0.05, beta = 0.2) if only 60% of the fish had developed eyes.

β-catenin = biological target: T1, β-catenin (Homo sapiens, UniProt P35222); experiment: Dynamic light scattering of β-catenin; type: binding; settings: 10 µM compound vs 1% DMSO vehicle
T1 construct: His6-β-catenin armadillo domain, AA134-668; made in house; host or cells: E. coli BL21 DL3 (NEB)
T1 sequence (P35222 134-668): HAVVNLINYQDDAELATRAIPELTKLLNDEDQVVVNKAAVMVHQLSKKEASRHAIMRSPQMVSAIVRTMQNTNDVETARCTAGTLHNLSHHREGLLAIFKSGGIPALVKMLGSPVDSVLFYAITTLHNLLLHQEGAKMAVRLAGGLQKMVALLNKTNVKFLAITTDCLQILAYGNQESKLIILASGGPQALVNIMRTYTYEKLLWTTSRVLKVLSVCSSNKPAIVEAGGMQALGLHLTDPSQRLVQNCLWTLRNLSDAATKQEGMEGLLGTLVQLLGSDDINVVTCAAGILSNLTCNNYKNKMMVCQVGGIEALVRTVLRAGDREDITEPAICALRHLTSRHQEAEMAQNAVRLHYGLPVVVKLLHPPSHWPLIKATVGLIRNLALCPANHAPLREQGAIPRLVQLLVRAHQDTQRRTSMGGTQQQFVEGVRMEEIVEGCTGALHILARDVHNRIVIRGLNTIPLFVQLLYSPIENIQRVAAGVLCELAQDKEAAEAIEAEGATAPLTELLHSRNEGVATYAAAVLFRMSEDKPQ
Procedure: as §2

SMILES: C[C@H]1[C@H]2N(C(=O)CN(C)N2C(=O)NCc2ccccc2)[C@@H](Cc2ccc(OP(=O)(O)O)cc2)C(=O)N1Cc1cccc2cccnc12 [PRI-724, reference compound]
Effect of control Wnt inhibitors on the Wnt luciferase reporter [1]: did inhibit the luciferase reporter

SMILES: CCc1ccc(-c2nc(CSCC(=O)NCCc3ccccc3)c(C)o2)cc1 [iCRT3, reference compound]
Systemic stability [2]: not systemically stable | Effect of control Wnt inhibitors on the Wnt luciferase reporter [1]: did inhibit the luciferase reporter

IC50 [3]: 7.63 µM | IC50 ([1]; TOP-Flash LNCaP-abl cells, siAPC knockdown, 24 h compound, ± SD of three replicates, read-out: IC50 for Wnt luciferase inhibition): 3.27 µM
SMILES: COc1ccc([C@H](C)N(CC(=O)N[C@H](C)C(=O)O)C(=O)CN(C(=O)CN(CCCOC(C)C)C(=O)CN(C(=O)CNCCc2ccccc2Oc2ccccc2)c2cc(OC)cc(OC)c2)[C@@H](C)c2ccc(OC)cc2)cc1 [linear 13, NH2-|N-mpp, N-dmp, N-ipp, N-Smpe, N-Smpe, D-Ala|-OH] (H-[N(2-(2-PhOPh)Et)Gly][Gly(N-3,5-(OMe)2-Ph)][N((CH2)3OiPr)Gly][X1][X1][dA]-OH)
Fish that developed eyes, BIO plus compound [4]: 6/8

Shift in measured hydrodynamic radius of β-catenin (DLS) (β-catenin): did not cause the same shift
SMILES: OC[C@H]1O[C@@H]2O[C@H]3[C@H](O)[C@@H](O)[C@@H](O[C@H]4[C@H](O)[C@@H](O)[C@@H](O[C@H]5[C@H](O)[C@@H](O)[C@@H](O[C@H]6[C@H](O)[C@@H](O)[C@@H](O[C@H]7[C@H](O)[C@@H](O)[C@@H](O[C@H]1[C@H](O)[C@H]2O)O[C@@H]7CO)O[C@@H]6CO)O[C@@H]5CO)O[C@@H]4CO)O[C@@H]3CO [α-cyclodextrin, reference compound]

From article PMC6199279, “Design of Peptoid-peptide Macrocycles to Inhibit the β-catenin TCF Interaction in Prostate Cancer” (Nature Communications, 2018)
